# Data from publication PMC7031696 (Cell chemical biology, 2019).
# Tested on: 3D7-MR4 trophozoite parasite-infected RBCs
# Experiment: Metabolomic profiling (hydrophilic metabolite changes, UHPLC-MS)
# Type: cell-based, Plasmodium falciparum
smiles,measurement,setting,value
CC(C)(C)c1ccc2c(c1)CN(Cc1ccc(Cl)cc1)CO2 [MMV000442],peptide levels (hemoglobin catabolism signature),"10 × IC50^72h, 2.5 hr, trophozoites",decreased peptide levels
same,Log2(fold changes) 1_3-Bisphosphoglyceric acid,"metabolite 1_3-Bisphosphoglyceric acid, log2 fold change",0.0000
same,Log2(fold changes) 2-Hydroxy-2-methylbutanedioic acid,"metabolite 2-Hydroxy-2-methylbutanedioic acid, log2 fold change",0.0000
same,Log2(fold changes) 2-Isopropylmalic acid,"metabolite 2-Isopropylmalic acid, log2 fold change",0.0000
same,Log2(fold changes) 2-dehydro-D-gluconate,"metabolite 2-dehydro-D-gluconate, log2 fold change",0.0187
same,Log2(fold changes) 2-oxo-4-methylthiobutanoate,"metabolite 2-oxo-4-methylthiobutanoate, log2 fold change",0.0000
same,Log2(fold changes) 2_3-Diphosphoglyceric acid,"metabolite 2_3-Diphosphoglyceric acid, log2 fold change",0.0000
same,Log2(fold changes) 3-phosphoglycerate,"metabolite 3-phosphoglycerate, log2 fold change",0.1472
same,Log2(fold changes) 3-phosphoserine,"metabolite 3-phosphoserine, log2 fold change",-0.0388
same,Log2(fold changes) 4-Pyridoxic acid,"metabolite 4-Pyridoxic acid, log2 fold change",0.3454
same,Log2(fold changes) 4-aminobutyrate,"metabolite 4-aminobutyrate, log2 fold change",-0.2887
same,Log2(fold changes) 4-phosphopantetheine,"metabolite 4-phosphopantetheine, log2 fold change",0.0000
same,Log2(fold changes) 4-phosphopantothenate,"metabolite 4-phosphopantothenate, log2 fold change",-0.1668
same,Log2(fold changes) 5-aminopentanoic acid,"metabolite 5-aminopentanoic acid, log2 fold change",-0.5922
same,Log2(fold changes) 5-methyl-THF,"metabolite 5-methyl-THF, log2 fold change",0.0000
same,Log2(fold changes) 5-phosphoribosyl-1-pyrophosphate,"metabolite 5-phosphoribosyl-1-pyrophosphate, log2 fold change",0.0000
same,Log2(fold changes) 6-phospho-D-gluconate,"metabolite 6-phospho-D-gluconate, log2 fold change",-0.0694
same,Log2(fold changes) ADP-D-glucose,"metabolite ADP-D-glucose, log2 fold change",0.0000
same,Log2(fold changes) Acetyl-glycine,"metabolite Acetyl-glycine, log2 fold change",0.0000
same,Log2(fold changes) Acetyllysine,"metabolite Acetyllysine, log2 fold change",-2.4239
same,Log2(fold changes) Aminoadipic acid,"metabolite Aminoadipic acid, log2 fold change",0.6779
same,Log2(fold changes) CDP,"metabolite CDP, log2 fold change",-0.1566
same,Log2(fold changes) CDP-choline,"metabolite CDP-choline, log2 fold change",0.0000
same,Log2(fold changes) CDP-ethanolamine,"metabolite CDP-ethanolamine, log2 fold change",0.0000
same,Log2(fold change) of CMP,metabolite CMP,-0.4256
same,Log2(fold change) of CTP,metabolite CTP,0.0000
same,Log2(fold changes) Citraconic acid,"metabolite Citraconic acid, log2 fold change",0.0000
same,Log2(fold change) of D-glucarate,metabolite D-glucarate,0.0000
same,Log2(fold change) of D-gluconate,metabolite D-gluconate,0.0000
same,Log2(fold change) of D-glucosamine-1/6-phosphate,metabolite D-glucosamine-1/6-phosphate,0.0000
same,Log2(fold change) of D-sedoheptulose-1/7-phosphate,metabolite D-sedoheptulose-1/7-phosphate,0.0894
same,Log2(fold change) of DL-Pipecolic Acid,metabolite DL-Pipecolic Acid,-2.3554
same,Log2(fold change) of DLH,metabolite DLH,-3.0002
same,Log2(fold change) of DLS,metabolite DLS,0.0000
same,Log2(fold change) of Decanoyl-CoA,metabolite Decanoyl-CoA,0.0000
same,Log2(fold change) of EV,metabolite EV,0.0000
same,Log2(fold change) of FAD,metabolite FAD,0.0825
same,Log2(fold change) of FMN,metabolite FMN,0.2444
same,Log2(fold change) of G3P/DHAP,metabolite G3P/DHAP,0.3715
same,Log2(fold change) of GDP,metabolite GDP,-0.4064
same,Log2(fold change) GMP,metabolite GMP,-0.5023
same,Log2(fold change) GTP,metabolite GTP,0.0000
same,Log2(fold change) HVDD,metabolite HVDD,0.0000
same,Log2(fold change) Hexose,metabolite Hexose,0.5242
same,Log2(fold change) Hydroxyisocaproic acid,metabolite Hydroxyisocaproic acid,0.0000
same,Log2(fold change) IDP,metabolite IDP,0.0000
same,Log2(fold change) IMP,metabolite IMP,-0.3808
same,Log2(fold change) Inositol,metabolite Inositol,0.0000
same,Log2(fold change) Isopentyl-PP,metabolite Isopentyl-PP,0.0000
same,Log2(fold change) L-arginino-succinate,metabolite L-arginino-succinate,-0.9153
same,Log2(fold change) LD,metabolite LD,0.0782
same,Log2(fold change) Myristoyl/tetradecanoyl-CoA,metabolite Myristoyl/tetradecanoyl-CoA,0.0000
same,Log2(fold change) N-Acetyl-L-alanine,metabolite N-Acetyl-L-alanine,-0.8745
same,Log2(fold change) N-acetyl-L-ornithine,metabolite N-acetyl-L-ornithine,-2.0207
same,Log2(fold change) N-acetyl-glucosamine-1/6-phosphate,metabolite N-acetyl-glucosamine-1/6-phosphate,0.0000
same,Log2(fold change) N-acetyl-glutamate,metabolite N-acetyl-glutamate,0.2896
same,Log2(fold change) N-acetyl-glutamine,metabolite N-acetyl-glutamine,-0.5645
same,Log2(fold change) N-carbamoyl-L-aspartate,metabolite N-carbamoyl-L-aspartate,-1.7487
same,Log2(fold change) NAD+,metabolite NAD+,-0.0829
same,Log2(fold change) NADH,metabolite NADH,0.7233
same,Log2(fold change) NADP+,metabolite NADP+,0.2722
same,Log2(fold change) NADPH,metabolite NADPH,0.0000
same,Log2(fold change) O-acetyl-L-serine,metabolite O-acetyl-L-serine,0.0000
same,Log2(fold change) Octoluse 8/1P,metabolite Octoluse 8/1P,0.0000
same,Log2(fold change) Octoluse Bisphosphate,metabolite Octoluse Bisphosphate,-0.1456
same,Log2(fold change) PD,metabolite PD,-3.3951
same,Log2(fold change) PE,metabolite PE,-2.6495
same,Log2(fold change) PEE,metabolite PEE,-3.0239
same,Log2(fold change) PEEK,metabolite PEEK,-4.4264
same,Log2(fold change) PVNF,metabolite PVNF,-3.4246
same,Log2(fold change) Pyroglutamic acid,metabolite Pyroglutamic acid,-0.3004
same,Log2(fold change) Pyrophosphate,metabolite Pyrophosphate,0.0000
same,Log2(fold change) Ribose-5-phosphate,metabolite Ribose-5-phosphate,-0.0687
same,Log2(fold change) S-adenosyl-L-homocysteine,metabolite S-adenosyl-L-homocysteine,-0.3299
same,Log2(fold change) S-adenosyl-L-methioninamine,metabolite S-adenosyl-L-methioninamine,0.0000
same,Log2(fold change) S-adenosyl-L-methionine,metabolite S-adenosyl-L-methionine,0.0000
same,Log2(fold change) S-methyl-5'-thioadenosine,metabolite S-methyl-5'-thioadenosine,0.0000
same,Log2(fold change) SD,metabolite SD,0.0000
same,Log2(fold change) SDL,metabolite SDL,0.0000
same,Log2(fold change) SID,metabolite SID,0.0000
same,Log2(fold change) Sedoheptulose bisphosphate,metabolite Sedoheptulose bisphosphate,-0.0816
same,Log2(fold change) Thiamine pyrophosphate,metabolite Thiamine pyrophosphate,0.0000
same,Log2(fold changes) UDP-D-glucose,"metabolite UDP-D-glucose, log2 fold change",0.1178
same,Log2(fold changes) UDP-D-glucuronate,"metabolite UDP-D-glucuronate, log2 fold change",0.0275
same,Log2(fold changes) UDP-N-acetyl-glucosamine,"metabolite UDP-N-acetyl-glucosamine, log2 fold change",-0.1255
same,Log2(fold changes) UDP,"metabolite UDP, log2 fold change",-0.3330
same,Log2(fold changes) UMP,"metabolite UMP, log2 fold change",-0.0965
same,Log2(fold changes) UTP,"metabolite UTP, log2 fold change",0.0000
same,Log2(fold changes) VD,"metabolite VD, log2 fold change",0.0000
same,Log2(fold changes) Xanthurenic acid,"metabolite Xanthurenic acid, log2 fold change",0.0000
same,Log2(fold changes) a-ketoglutarate,"metabolite a-ketoglutarate, log2 fold change",-0.2716
same,Log2(fold changes) acetyl-CoA,"metabolite acetyl-CoA, log2 fold change",0.0000
same,Log2(fold changes) acetyl-aspartate,"metabolite acetyl-aspartate, log2 fold change",-0.0302
same,Log2(fold changes) acetylphosphate,"metabolite acetylphosphate, log2 fold change",0.6335
same,Log2(fold changes) aconitate,"metabolite aconitate, log2 fold change",-0.3057
same,Log2(fold changes) adenine,"metabolite adenine, log2 fold change",0.0000
same,Log2(fold changes) adenosine 5'-phosphosulfate,"metabolite adenosine 5'-phosphosulfate, log2 fold change",-0.0782
